Experiment [1] has as its target T1, human orexin 2 receptors (Homo sapiens, UniProt O43614).
T1 construct: expressed in transfected cells
T1 sequence (O43614 1-444): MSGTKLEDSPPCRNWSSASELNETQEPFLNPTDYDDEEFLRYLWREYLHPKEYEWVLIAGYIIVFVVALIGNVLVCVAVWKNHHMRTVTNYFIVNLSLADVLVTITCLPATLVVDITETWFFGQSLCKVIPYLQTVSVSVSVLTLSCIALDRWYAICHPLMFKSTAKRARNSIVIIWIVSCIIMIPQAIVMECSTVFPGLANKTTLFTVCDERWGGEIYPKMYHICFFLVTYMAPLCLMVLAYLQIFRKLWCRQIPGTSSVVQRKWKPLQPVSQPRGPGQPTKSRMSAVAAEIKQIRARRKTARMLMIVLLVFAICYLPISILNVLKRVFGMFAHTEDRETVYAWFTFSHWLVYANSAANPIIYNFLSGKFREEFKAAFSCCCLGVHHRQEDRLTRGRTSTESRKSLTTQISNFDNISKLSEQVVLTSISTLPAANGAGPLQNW
As to the kind of experiment: Calcium accumulation in cells (FLIPR), hOx2R. It is filed as cell-based. The conditions noted are these: inhibition of orexin A induced calcium accumulation; Cheng and Prusoff correction.
Description: (§1) Cells expressing human orexin 1 or human orexin 2 receptors, were seeded at 8,000 cells/well in 384 well black-walled clear bottom, poly-D-lysine coated plates. After 24 h, the medium was removed and cells were washed once with phosphate buffered saline and serum-deprived overnight in assay buffer (130 mM NaCl, 5.4 mM KCl, 1.8 mM CaCl2, 0.8 mM MgSO4, 0.9 mM NaH2PO4, 25 mM glucose, 20 mM HEPES, pH 7.4) containing bovine serum albumin (1% w/v).
On the day of the experiment, the cells seeded in black plates were treated with assay buffer containing the Ca^2+ sensitive fluorescent dye Fluo4-AM (2 μM), and probenecid (0.1 mM). After 1 h plates were washed twice with, and resuspended in, assay buffer containing probenecid (0.1 mM) using a multi plate washer. […] Fluorescence measurements were then continued every 1 S for 120 S followed by every 4 S for 240 S.
(§2) Compounds of formula I were tested usually in a concentration range from 10^−9 M to 10^−5M.
(§3) In the second round, performed one hour later (to allow for equilibration), Orexin A was tested either in the absence (calibration curves, Orexin A agonist controls) or in the presence of compounds of formula I to determine antagonism.

Experiment [2] addresses T2, human orexin 1 receptors (Homo sapiens, UniProt O43613).
T2 sequence (O43613 1-425): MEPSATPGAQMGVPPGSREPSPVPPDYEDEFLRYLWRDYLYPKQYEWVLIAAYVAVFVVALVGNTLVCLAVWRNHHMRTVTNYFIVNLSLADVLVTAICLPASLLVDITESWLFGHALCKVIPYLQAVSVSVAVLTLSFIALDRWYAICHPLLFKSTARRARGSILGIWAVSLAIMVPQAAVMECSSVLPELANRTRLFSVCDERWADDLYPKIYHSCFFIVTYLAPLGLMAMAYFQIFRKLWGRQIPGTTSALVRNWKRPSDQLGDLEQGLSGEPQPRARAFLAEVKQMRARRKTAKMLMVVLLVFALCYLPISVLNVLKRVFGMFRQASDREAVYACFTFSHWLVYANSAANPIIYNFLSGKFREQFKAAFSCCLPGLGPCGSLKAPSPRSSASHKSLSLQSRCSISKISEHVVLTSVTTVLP
Description: Calcium accumulation in cells (FLIPR), hOx1R.
Description: as §1
On the day of the experiment, the cells seeded in black plates were treated with assay buffer containing the Ca^2+ sensitive fluorescent dye Fluo4-AM (2 μM), and probenecid (0.1 mM). After 1 h plates were washed twice with, and resuspended in, assay buffer containing probenecid (0.1 mM) using a multi plate washer. The plates were placed into a FLIPR II (Fluorometric Imaging Plate Reader, Molecular Devices, Sunnyvale, Calif., USA) and baseline fluorescence (fluorescence light units, FLU) was measured (5 measurements, 2 S each; laser excitation 488 nm at 0.6-1 W, CCD camera exposure 0.4 s) before addition of buffer alone (basal) or containing test compounds (either compound of formula I alone, agonist alone or agonist in the presence of various concentrations of compounds of formula I). Fluorescence measurements were then continued every 1 S for 120 S followed by every 4 S for 240 S.
as §2, §3
Inhibition data is expressed in Table 2 as Ki [μM], converted by the Cheng and Prusoff correction (Ki=IC50/1+(L/EC50)), where IC50 is the 50% inhibition value determined in concentration response inhibition curves, EC50 is the half maximal activation concentration determined for orexin A in concentration response curves and L is the concentration of orexin A used in inhibition experiments performed in with a submaximal concentration of orexin A in the presence of up to 8 increasing concentrations of compound of formula I. Inhibition data is also expressed in Table 2 as % inhibition value measured at a concentration of 10 μM of selected compounds of formula I.

Experiment [3] addresses T1, human orexin 2 receptors. As to the kind of experiment: Radioligand binding assay ([3H]-SB649868 competition), hOx2R. To be noted: competition with about 1 nM [3H]-SB649868, cell membranes.
Description: For crude cell membrane preparations, cells (CHO, Chinese hamster ovary or HEK, human embryonic kidney) expressing human orexin 1 or human orexin 2 receptors, were washed with HEPES (10 mM, pH 7.5), scraped off the culture plates with the same buffer, and centrifuged at 4° C. for 5 min at 2500×g. The cell pellet was either stored at −80° C. or used directly. Before the experiments, cell membranes were re-suspended in binding assay buffer (10 mM HEPES, 0.5% (w/v) bovine serum albumin, pH 7.5) by homogenisation with a Polytron homogeniser at 50 Hz for 20 s.
Experiment [4] deals with T2, human orexin 1 receptors. As to the kind of experiment: Radioligand binding assay ([3H]-SB649868 competition), hOx1R. Also noted: expressed in transfected cells. The conditions noted are these: competition with about 1 nM [3H]-SB649868, cell membranes. As to the method:
The cell pellet was either stored at −80° C. or used directly. Before the experiments, cell membranes were re-suspended in binding assay buffer (10 mM HEPES, 0.5% (w/v) bovine serum albumin, pH 7.5) by homogenisation with a Polytron homogeniser at 50 Hz for 20 s. Cell membranes were also used as made available by commercial providers.
Bound radioactivity was measured, and data were analysed with the program XLFIT or Graphpad Prism. Protein concentration was determined according to the Bradford/BioRad Protein Assay Kit.
In competition experiments, cell homogenates (150 μl) were incubated in assay buffer (10 mM HEPES, pH 7.5, 0.5% (w/v) bovine serum albumin, 5 mM MgCl2, 1 mM CaCl2, and tween 0.05%) for 1 h at room temperature with about 1 nM of the radioligand [^3H]-SB649868, 66 Ci/mmole, 50 μl), and with various concentrations of compounds of the invention (50 μl) in triplicates; non-specific binding was determined in the presence of almorexant (10 μM). Reactions were terminated by vacuum filtration, 3 washes of ice cold wash buffer (Tris-HCl pH 7.4/10 mM, with NaCl 154 mM). Competition data is expressed in Table 2 as Kd [μM].

[5] abbreviates: read-out: FLIPR hOx1R Ki, inhibition of orexin A induced calcium accumulation, Cheng and Prusoff correction.

Where two headings read alike, the source gives them in different places.

`Cc1cc(C)nc(N2CCC3(CCCN(Cc4ccccc4-c4nc(C)no4)C3=O)CC2)n1` [Example 1, 9-(4,6-dimethylpyrimidin-2-yl)-2-(2-(3-methyl-1,2,4-oxadiazol-5-yl)benzyl)-2,9-diazaspiro[5.5]undecan-1-one]: the Ki in experiment [1] came out at 7 nM; in experiment [2] (setting [5]) it was 1620 nM.

As to `COc1cc(-c2nn(C)nc2CN2CCCC3(CCN(c4nc(C)cc(C)n4)CC3)C2=O)ccn1` [Example 122, 9-(4,6-dimethylpyrimidin-2-yl)-2-((5-(2-methoxypyridin-4-yl)-2-methyl-2H-1,2,3-triazol-4-yl)methyl)-2,9-diazaspiro[5.5]undecan-1-one], the figures for the Kd in experiment [3] and in experiment [4] were 14 nM and 130 nM, respectively. The Ki amounted to 1.4 nM in experiment [1] and 176 nM in experiment [2].

With `COc1cncc(N2CCC3(CCCN(Cc4c[nH]c5ccccc45)C3=O)CC2)n1` [Example 82, 2-((1H-indol-3-yl)methyl)-9-(6-methoxypyrazin-2-yl)-2,9-diazaspiro[5.5]undecan-1-one], the Kd in experiment [3] is 3160 nM; in experiment [4] it was greater than 10000 nM. For the same molecule, the Ki in experiment [1] came to 57 nM; in experiment [2] it was 856 nM.

As for `COc1ccnc(N2CCC3(CCCN(Cc4c[nH]c5ccccc45)C3=O)CC2)n1` [Example 13, 2-((1H-indol-3-yl)methyl)-9-(4-methoxypyrimidin-2-yl)-2,9-diazaspiro[5.5]undecan-1-one], the Ki in experiment [1] was 14 nM.

For the molecule `Cc1cc(C#N)nc(N2CCC3(CCCN(Cc4ccccc4-n4nccn4)C3=O)CC2)n1` [Example 25, 2-(2-(2-(2H-1,2,3-triazol-2-yl)benzyl)-1-oxo-2,9-diazaspiro[5.5]undecan-9-yl)-6-methylpyrimidine-4-carbonitrile], the Kd in experiment [3] is 389 nM; in experiment [4], greater than 10000 nM. The Ki amounted to 68 nM in experiment [1] and 3700 nM in experiment [2].

On to `O=C1N(Cc2cccc3c2OCCO3)CCCC12CCN(c1cncc(Cl)n1)CC2` [Example 21, 9-(6-chloropyrazin-2-yl)-2-((2,3-dihydrobenzo[b][1,4]dioxin-5-yl)methyl)-2,9-diazaspiro[5.5]undecan-1-one], for which, in experiment [1], the Ki was found to be 247 nM. Further, the inhibition at 10 µM in experiment [2] (read-out: FLIPR hOx1R % inhibition value) stood at 26%.

As for `COC(=O)c1ccc2[nH]cc(CN3CCCC4(CCN(c5nc(C)cc(C)n5)CC4)C3=O)c2c1` [Example 115, Methyl 3-((9-(4,6-dimethylpyrimidin-2-yl)-1-oxo-2,9-diazaspiro[5.5]undecan-2-yl)methyl)-1H-indole-5-carboxylate], the Ki in experiment [1] was determined as 0.7 nM; in experiment [2] (setting [5]), 21 nM.

(Values after US20130281463A1, “DIAZA-SPIRO[5.5]UNDECANES USEFUL AS OREXIN RECEPTOR ANTAGONISTS” (NOVARTIS AG, priority 2010, published 2013).)
